The record followed here is patent publication US11299467B2 (Antabio SAS, priority 2017, dated 2022).

≈ marks a conversion by molar mass, not a printed value. Like-named read-outs stand apart in the source and are kept apart here.

Common to all, as to type: cell-based
For assay [1], the system named is NTBC020 (E. coli strain expressing NDM-1, TEM-1 and CTX-M-15). As to the kind of experiment: Meropenem MIC, broth micro-dilution, NTBC020. To be noted: Escherichia coli, read-out: MIC mero. The protocol: (§1) The experiments were carried out using the ‘broth micro-dilution method’ according to the protocols M07-A8 established by the Clinical Laboratory Standards Institute (CLSI). Serial dilutions of the β-lactam antibiotic (Meropenem) were prepared in 96-well plates in cation-adjusted Mueller-Hinton broth (CAMHB); the concentration range was defined from 0.03 mg/L to 512 mg/L. The compounds were added at a constant concentration of 8 μg/mL. A bacterial inoculum of each strain (clinical isolates) was adjusted to a 0.5 McFarland turbidity standard in physiologic serum (0.9% NaCl), then diluted 1:100 in CAMHB and added to each well to give a final bacterial cell number of 5×10^5 CFU/well. After incubation for 18-20 hours in a heating chamber at 37° C., the growth inhibition was evaluated by the absence of any bacterial development.
(§2) Compounds of the invention were tested at a constant concentration of 8 μg/mL. […]
(§3) Experiments were carried out using the ‘broth micro-dilution method’ according to the protocols M07-A8 established by the Clinical Laboratory Standards Institute (CLSI). […] After incubation for 18-20 hours in a heating chamber at 37° C., the growth inhibition was evaluated by the absence of any bacterial development. […]

For assay [2], the system named is NTBC104-1 (K. pneumoniae strain expressing NDM-1 and SHV-11). As to the kind of experiment: Meropenem MIC, broth micro-dilution, NTBC104-1. To be noted: Klebsiella pneumoniae. On the procedure: as §1
Compounds of the invention were tested at a constant concentration of 8 μg/mL. The clinical strains used in these potentiation experiments were NTBC020 (E. coli strain expressing NDM-1, TEM-1 and CTX-M-15); NTBC035-2 (K. pneumoniae strain expressing NDM-1, CMY-4 and SHV-11); NTBC104-1 (K. pneumoniae strain expressing NDM-1 and SHV-11); NTBC123 (K. pneumoniae strain expressing NDM-1); NTBC018 (C. freundii strain expressing VIM-2); NTBC024 (K. pneumoniae strain expressing VIM-19, TEM-1 and CTX-M-3); NTBC042 (E. coli strain expressing VIM-1, TEM-1, CTX-M-15, SHV-12); NTBC055 (E. Coli strain expressing VIM-1); NTBC062 (K. pneumoniae strain expressing IMP-1 and TEM-1) and NTBC039 (K. oxytoca strain expressing IMP-28).
Mice were infected in the thigh with K. pneumoniae NTBC104. […] The MIC of meropenem in the presence of 8 ug/mL of the compound of Example 2 is 4 ug/mL.
as §3
For orientation: Dilution methods test growth across graded concentrations, often in twofold steps.

Assay [3] concerns NTBC024 (K. pneumoniae strain expressing VIM-19, TEM-1 and CTX-M-3). As to the kind of experiment: Meropenem MIC, broth micro-dilution, NTBC024. Particulars: Klebsiella pneumoniae, read-out: MIC mero. The protocol: as §1, §2, §3
In assay [4] the test system is NTBC042 (E. coli strain expressing VIM-1, TEM-1, CTX-M-15, SHV-12). In words: Meropenem MIC, broth micro-dilution, NTBC042. To be noted: Escherichia coli, read-out: MIC mero. The protocol:
as §1, §2, §3

In assay [5] the test system is NTBC055 (E. Coli strain expressing VIM-1). As to the kind of experiment: Meropenem MIC, broth micro-dilution, NTBC055. To be noted: Escherichia coli, read-out: MIC mero. On the procedure:
as §1, §2, §3

Assay [6] deals with NTBC062 (K. pneumoniae strain expressing IMP-1 and TEM-1). In words: Meropenem MIC, broth micro-dilution, NTBC062. To be noted: Klebsiella pneumoniae, read-out: MIC mero. On the procedure: as §1, §2, §3
The subject of assay [7] is NTBC099 (K. pneumonia strain expressing KPC-3, SHV-11 and TEM-1). As to the kind of experiment: Meropenem MIC, broth micro-dilution, NTBC099. Particulars: Klebsiella pneumoniae, read-out: MIC mero. The protocol:
as §1, with “Experiments” for “The experiments”, “meropenem (mero)” for “the β-lactam antibiotic (Meropenem)”, “compounds (the compound of Example 2, above, and/or WCK4234)” for “compounds”, “the” for “a constant”, “indicated in the table below.” for “of 8 μg/mL.”
(§4) NTBC091-1 (E. coli strain expressing KPC-2 and TEM-1); NTBC093 (E. cloacae strain expressing KPC-2 and TEM-1); NTBC096-1 (K. pneumonia strain expressing OXA-181 and SHV-11); NTBC099 (K. pneumonia strain expressing KPC-3, SHV-11 and TEM-1); and NTBC189 (K. pneumonia strain expressing TEM-OSBL, CTX-M-14 and OXA-48).

Assay [8] concerns NTBC189 (K. pneumonia strain expressing TEM-OSBL, CTX-M-14 and OXA-48). As to the kind of experiment: Meropenem MIC, broth micro-dilution, NTBC189. Particulars: Klebsiella pneumoniae, read-out: MIC mero. On the procedure: as §1, with “Experiments” for “The experiments”, “meropenem (mero)” for “the β-lactam antibiotic (Meropenem)”, “compounds (the compound of Example 2, above, and/or WCK4234)” for “compounds”, “the” for “a constant”, “indicated in the table below.” for “of 8 μg/mL.”
as §4

Assay [9] deals with NTBC019 (K. pneumonia strain expressing NDM-1, CTX-M-15 and OXA-181). In words: Meropenem MIC, broth micro-dilution, NTBC019. To be noted: Klebsiella pneumoniae. On the procedure: as §1, with “Experiments” for “The experiments”, “meropenem (mero)” for “the β-lactam antibiotic (Meropenem)”, “compounds (the compound of Example 2, above, and/or WCK4234)” for “compounds”, “the” for “a constant”, “indicated in the table below.” for “of 8 μg/mL.”
(§5) NTBC019 (K. pneumonia strain expressing NDM-1, CTX-M-15 and OXA-181); NTBC185 (K. pneumonia strain expressing SHV-OSBL, TEM-OSBL, NDM-1 and OXA-48); NTBC186 (K. pneumonia strain expressing ACT-TYPE, VIM-1 and OXA-48); NTBC187 (K. pneumonia strain expressing SHV-OSBL, NDM-1 and OXA-48); and NTBC188 (K. pneumonia strain expressing NDM-1 and KPC-2).
Experiments were conducted as described above. Compounds (the compounds of Examples 2 and 26) were tested at 8 μg/mL. […] MIC values were determined for […]

The subject of assay [10] is NTBC187 (K. pneumonia strain expressing SHV-OSBL, NDM-1 and OXA-48). In words: Meropenem MIC, broth micro-dilution, NTBC187. Particulars: Klebsiella pneumoniae, read-out: MIC mero. The protocol:
as §1, with “Experiments” for “The experiments”, “meropenem (mero)” for “the β-lactam antibiotic (Meropenem)”, “compounds (the compound of Example 2, above, and/or WCK4234)” for “compounds”, “the” for “a constant”, “indicated in the table below.” for “of 8 μg/mL.”
as §5

A word on the MIC: it is the least concentration at which growth counts as inhibited.

With `C[C@@H](O)[C@H]1C(=O)N2C(C(=O)O)=C(S[C@@H]3CN[C@H](C(=O)N(C)C)C3)[C@H](C)[C@H]12` [Meropenem], the MIC in assay [1] stood at 128 µg/mL; in assay [2] (read-out: MIC mero), 64 µg/mL; in assay [2] (read-out: MIC of meropenem against K. pneumoniae NTBC104), 64 µg/mL; in assay [3], 16 µg/mL; in assay [4], 8 µg/mL; in [5], 4 µg/mL. The MIC in assay [6] was 4 µg/mL; in [7], 128 µg/mL (≈ 334 µM); in assay [8], 16 µg/mL (≈ 41.7 µM); in [9] (read-out: MIC mero), 64 µg/mL (≈ 167 µM); in assay [9] (read-out: MIC, NTBC19), 8 to 512 µg/mL (≈ 20.9 to 1340 µM); in [10], 128 µg/mL (≈ 334 µM).
